Results as given in patent publication US8067395B2, “Inhibitors of tyrosine kinases and uses thereof” (Pharmacyclics, Inc., priority 2006, dated 2011).

These compounds were tested against Btk (Homo sapiens, UniProt Q06187) (assay: Btk TR-FRET kinase inhibition assay). Settings: pH 7.4, ATP at the Km for the kinase, 1 μM peptide substrate, [Btk]total=0.5 nM, read-out: Btk-TRFRET (Ki).
Format: biochemical
Experimental: Suitable in vitro assays for measuring kinase activity and the inhibition thereof by compounds are known (e.g., see Kuzmic et al. Anal. Biochem. 2000, 286, 45-50).
The following protocol represents an assay for determination of inhibition of kinases under physiological conditions (pH 7.4). Kinase activity was determined using a time-resolved fluorescence resonance energy transfer (TR-FRET) methodology. Measurements were performed in a reaction volume of 50 μL using 96-well assay plates. Kinase enzyme, inhibitor, ATP (at the Km for the kinase), and 1 μM peptide substrate (Biotin-AVLESEEELYSSARQ-NH2) were incubated in a reaction buffer composed of 20 mM Tris, 50 mM NaCl, MgCl2 (5-25 mM depending on the kinase), 1 mM DTT, 0.1 mM EDTA, 0.01% bovine serum albumin, 0.005% Tween-20, and 10% DMSO at pH 7.4 for one hour. The reaction was quenched by the addition of 1.2 equivalents of EDTA (relative to Mg^2+) in 25 μL of 1× Lance buffer (Perkin-Elmer). Streptavidin-APC (Perkin-Elmer) and Eu-labeled p-Tyr100 antibody (Perkin-Elmer) in 1× Lance buffer were added in a 25 μL volume to give final concentrations of 100 nM and 2.5 nM, respectively, and the mixture was allowed to incubate for one hour. The TR-FRET signal was measured on a multimode plate reader with an excitation wavelength of 330 nm and detection wavelengths of 615 nm and 665 nm. Activity was determined by the ratio of the fluorescence at 665 nm to that at 615 nm. For each compound, enzyme activity was measured at various concentrations of compound. Negative control reactions were performed in the absence of inhibitor in replicates of six, and two no-enzyme controls were used to determine baseline fluorescence levels. Inhibition constants were obtained using the program BatchKi (Kuzmic et al. Anal. Biochem. 2000, 286, 45-50). IC50s were obtained according to this equation: IC50={Ki(app)/(1+[ATP]/Km^ATP)}+[E]total/2; for all kinases, [ATP]=Km^ATP, [Btk]total=0.5 nM and [Lck]total=6 nM.

Chain of Btk (Q06187 whole entry): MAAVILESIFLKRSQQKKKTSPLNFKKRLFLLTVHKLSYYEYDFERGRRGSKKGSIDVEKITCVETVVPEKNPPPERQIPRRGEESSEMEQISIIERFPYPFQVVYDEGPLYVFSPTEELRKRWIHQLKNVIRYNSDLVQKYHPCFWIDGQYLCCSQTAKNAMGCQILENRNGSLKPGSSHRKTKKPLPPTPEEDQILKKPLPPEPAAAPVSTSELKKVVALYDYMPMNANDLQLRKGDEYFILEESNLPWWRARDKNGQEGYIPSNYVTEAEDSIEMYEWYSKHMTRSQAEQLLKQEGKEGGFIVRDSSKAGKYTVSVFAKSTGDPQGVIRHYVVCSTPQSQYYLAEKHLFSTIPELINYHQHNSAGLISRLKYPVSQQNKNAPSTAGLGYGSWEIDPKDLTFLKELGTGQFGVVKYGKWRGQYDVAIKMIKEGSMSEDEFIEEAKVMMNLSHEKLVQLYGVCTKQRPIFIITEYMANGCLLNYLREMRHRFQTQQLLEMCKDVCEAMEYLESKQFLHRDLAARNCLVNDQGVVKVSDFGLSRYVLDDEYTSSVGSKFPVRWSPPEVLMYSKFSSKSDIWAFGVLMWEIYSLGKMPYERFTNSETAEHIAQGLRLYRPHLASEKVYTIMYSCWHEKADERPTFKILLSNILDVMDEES

Ki, < 100 nM:
Cc1cc(F)ccc1Nc1nc2ccc3c(C)c(C=CCN4CCN(c5ccc(Cl)cc5)CC4)[nH]c(=O)c3c2n1C [Compound 20, 2-(4-fluoro-2-methylphenylamino)-1,6-dimethyl-7-[3-(N-(4-chlorophenyl)-piperazin-1-yl)-propenyl]-1,8-dihydro-imidazo[4,5-h]isoquinolin-9-one]
CC(=O)N1CCN(CC=Cc2[nH]c(=O)c3c(ccc4nc(Nc5ccc(F)cc5C)n(C)c43)c2C)CC1 [Compound 21, 2-(4-fluoro-2-methylphenylamino)-1,6-dimethyl-7-[3-(N-methylcarbonylpiperazin-1-yl)-propenyl]-1,8-dihydro-imidazo[4,5-h]isoquinolin-9-one]
Cc1cc(F)ccc1Nc1nc2ccc3c(C)c(C=CCN4CCN(C(=O)c5ccccc5)CC4)[nH]c(=O)c3c2n1C [Compound 22, 2-(4-fluoro-2-methylphenylamino)-1,6-dimethyl-7-[3-(N-phenylcarbonylpiperazin-1-yl)-propenyl]-1,8-dihydro-imidazo[4,5-h]isoquinolin-9-one]
Cc1cc(F)ccc1Nc1nc2ccc3c(C)c(C=CCN4CCN(c5ccncc5)CC4)[nH]c(=O)c3c2n1C [Compound 23, 2-(4-fluoro-2-methylphenylamino)-1,6-dimethyl-7-[3-(N-(pyridin-4-yl)-piperazin-1-yl)-propenyl]-1,8-dihydro-imidazo[4,5-h]isoquinolin-9-one]
Cc1cc(F)ccc1Nc1nc2ccc3c(C)c(/C=C/CN4CCN(S(C)(=O)=O)CC4)[nH]c(=O)c3c2n1C [Compound 24, 2-(4-fluoro-2-methylphenylamino)-1,6-dimethyl-7-[3-(N-methylsulfonylpiperazin-1-yl)-propenyl]-1,8-dihydro-imidazo[4,5-h]isoquinolin-9-one]
Cc1cc(F)ccc1Nc1nc2ccc3c(C)c(C=CCN4CCN(c5ccccn5)CC4)[nH]c(=O)c3c2n1C [Compound 26, 2-(4-fluoro-2-methylphenylamino)-1,6-dimethyl-7-[3-(N-(pyridin-2-yl)-piperazin-1-yl)-propenyl]-1,8-dihydro-imidazo[4,5-h]isoquinolin-9-one]
Cc1cc(F)ccc1Nc1nc2ccc3c(C)c(C=CCN4CCN(c5ncccn5)CC4)[nH]c(=O)c3c2n1C [Compound 27, 2-(4-fluoro-2-methylphenylamino)-1,6-dimethyl-7-[3-(N-(pyrimidin-2-yl)-piperazin-1-yl)-propenyl]-1,8-dihydro-imidazo[4,5-h]isoquinolin-9-one]
Cc1cc(F)ccc1Nc1nc2ccc3c(C)c(C=CCN4CCN(Cc5c(Cl)cccc5Cl)CC4)[nH]c(=O)c3c2n1C [Compound 28, 2-(4-fluoro-2-methylphenylamino)-1,6-dimethyl-7-[3-(N-(2,6-dichlorophenylmethyl)-piperazin-1-yl)-propenyl]-1,8-dihydro-imidazo[4,5-h]isoquinolin-9-one]
Cc1cc(F)ccc1Nc1nc2ccc3c(C)c(C=CCN4CCN(S(=O)(=O)c5ccccc5)CC4)[nH]c(=O)c3c2n1C [Compound 29, 2-(4-fluoro-2-methylphenylamino)-1,6-dimethyl-7-[3-(N-phenylsulfonylpiperazin-1-yl)-propenyl]-1,8-dihydro-imidazo[4,5-h]isoquinolin-9-one]
Cc1cc(F)ccc1Nc1nc2ccc3c(C)c(/C=C/CN4CCN(c5ccc(F)cc5)CC4)[nH]c(=O)c3c2n1C [Compound 30, 2-(4-fluoro-2-methylphenylamino)-1,6-dimethyl-7-[3-(N-(4-fluorophenyl)-piperazin-1-yl)-propenyl]-1,8-dihydro-imidazo[4,5-h]isoquinolin-9-one]
Cc1cc(F)ccc1Nc1nc2ccc3c(C)c(C=CCN4CCN(C(=O)OC(C)(C)C)CC4)[nH]c(=O)c3c2n1C [Compound 31, 2-(4-fluoro-2-methylphenylamino)-1,6-dimethyl-7-[3-(N-tert-butyloxycarbonylpiperazin-1-yl)-propenyl]-1,8-dihydro-imidazo[4,5-h]isoquinolin-9-one]
